# Assay results published in article PMC9323733, “Efficacy of Vafidemstat in Experimental Autoimmune Encephalomyelitis Highlights the KDM1A/RCOR1/HDAC Epigenetic Axis in Multiple Sclerosis” (Pharmaceutics, 2022).
# Tests used:
# Format in all cases: in vivo, mouse
# spinal cord of EAE mice [1] = assay: Microarray, spinal cord of EAE mice, effector phase (E), 24 h after treatment; ORY-2001 0.5 mg/kg, FTY720 1.0 mg/kg
# Method: We evaluated differences in gene expression induced by the treatment using real-time PCR and by microarray hybridization analysis. First, total RNA was isolated from brain and spinal cord segments from EAE mice using Qiazol™ and the RNeasy MiniKit™ extraction kit (Qiagen). Evaluation of RNA quality was performed with the Agilent 2100 bioanalyzer and NanoDrop™ ND-1000 (Thermo Scientific, Dartford, Kent, UK). After DNAse I treatment, RNA (1 µg/sample) was reverse transcribed using RevertAid First strand cDNA Synthesis kit (Fermentas) and random hexamer primers. For evaluating the expression of the inflammatory markers TNFα, IL-1β, IP10, IL-4, and CCL5, real time PCR was performed by using iQ SYBR Green Supermix (Bio-Rad, Feldkirchen, Germany) according to manufacturer’s instructions in a BIORAD CFX96 thermal cycler. Primer sequences and PCR conditions are indicated in Supplementary Materials Table S3. Microarray studies were performed by using DNA microarray oligo probes designed with Tethys, Oryzon’s proprietary software which is based on the in silico thermodynamic simulation of hybridization. Agilent probes were added for genes which yielded no probes, complying with Tethys criteria. Control probes were used to assess detection limits and range, to verify spatial homogeneity, and to determine experimental within-array variation. Microarray slides were synthesized by Agilent. Total RNA (0.5 µg) amplification and labeling with Cy3 or Cy5 was carried out using a modified Eberwine mRNA amplification procedure employing the MessageAmp™ II aRNA Amplification kit from Ambion (ThermoFisher Scientific, Oxford, UK). […]
# (§1) For the gene expression studies, data from microarray assays were normalized by modified nonlinear Q-splines normalization method and Log2(Sample/Vehicle) values calculated without background correction (which permits robust selection of differentially expressed genes yet may lead to sub-estimation of the magnitude of change for genes expressed near the detection limit). Differential expression was assessed with the proprietary Polyphemus software using robust statistics on the average technical replicates (3 replicates/gene oligo datapoint) after removing eventual outlier points (caused by dust or array imperfections). […] The p values were calculated after outlier elimination based on the absolute value of the regularized t-statistics, which uses a Bayesian framework to derive the algorithm, using internal replicated controls to assess the minimum technical variability of the process. Correlation between gene expression changes induced by different treatments was analysed by calculating the Pearson correlation coefficient r using the Log2(Treatment/Veh) values for all genes expressed above background level (n). […]
# [2] = system: C57BL/6 mice with chronic EAE; assay: Chronic EAE induced by MOG35–55, clinical score; settings: for mean clinical score: EAE effector phase, p.o. 5 days from day 12, FTY720 1.0 mg/kg
# Method: Mice also received i.p. injections of 200 ng of pertussis toxin on days 0 and 2 [32]. Immunized mice were randomly distributed in different groups. […] MPTP is a prodrug which is converted to the neurotoxin 1-methyl-4-phenylpyridinium (MPP+) by MAO-B in vivo.
# Compounds were administered once daily for five consecutive days in two cycles, from day 12 to 16 and from day 19 to 23 post-immunization. […] HPβCD was included to facilitate dissolution. Mice were scored daily for signs of EAE according to the following clinical scoring system: 0, no clinical signs; 0.5, partial loss of tail tonicity; 1, complete loss of tail tonicity; 2, flaccid tail and abnormal gait; 3, complete hind leg paralysis; 4, hind leg paralysis with hind body paresis; 5, hind and foreleg paralysis; and 6, death. Intermediate phenotypes were scored as a half integer. Animals were sacrificed when they kept a score of 5 more than 24 h. Investigators which administered the compounds and scored the animals were blinded to the treatments.
# brain of EAE mice = assay: Microarray, brain of EAE mice, effector phase (E), 24 h after treatment; ORY-2001 0.5 mg/kg, FTY720 1.0 mg/kg
# Method: We evaluated differences in gene expression induced by the treatment using real-time PCR and by microarray hybridization analysis. First, total RNA was isolated from brain and spinal cord segments from EAE mice using Qiazol™ and the RNeasy MiniKit™ extraction kit (Qiagen). Evaluation of RNA quality was performed with the Agilent 2100 bioanalyzer and NanoDrop™ ND-1000 (Thermo Scientific, Dartford, Kent, UK). After DNAse I treatment, RNA (1 µg/sample) was reverse transcribed using RevertAid First strand cDNA Synthesis kit (Fermentas) and random hexamer primers. For evaluating the expression of the inflammatory markers TNFα, IL-1β, IP10, IL-4, and CCL5, real time PCR was performed by using iQ SYBR Green Supermix (Bio-Rad, Feldkirchen, Germany) according to manufacturer’s instructions in a BIORAD CFX96 thermal cycler. Primer sequences and PCR conditions are indicated in Supplementary Materials Table S3. […]
# as §1
# spinal cord of EAE mice [3] = assay: EAE, inflammatory mediators in spinal cord protein extracts (ELISA); settings: ORY-2001 0.5 mg/kg; for IFNγ and IP-10 levels in spinal cord / IL-1β levels in spinal cord: disease peak, FTY720 1.0 mg/kg
# Excerpt: For mechanistic studies in the EAE model, animals were divided into two groups, and samples were collected on day 26 post-immunization (sub-chronic phase), 3 days after the last dose, or on day 17 post-immunization for evaluating the effector phase. For this, mice were euthanized by intracardiac perfusion with saline (0.9%NaCl in H2O MilliQ) after pentobarbital anesthesia (Doletal), and blood samples, spleen, draining lymph nodes (DLNs: cervical, inguinal and axillary), brain, and spinal cord were removed. Serum samples were used for autoantibodies determination. Single-cell suspensions were obtained from spleen or pooled DLNs and used for the determination of cell number and auto-reactive and inflammatory responses, as described later. Brain and spinal segments of the cervical and lumbar regions were prepared separately and processed for RNA isolation, protein extraction, and histopathological analysis. Proteins were extracted from cervical and lumbar segments of spinal cord and brain from EAE mice via homogenization (50 mg tissue/mL) in lysis buffer (50 mM Tris-HCl, pH 7.4, 0.5 mM DTT, and 10 µg/mL proteinase inhibitors PMSF, pepstatin, and leupeptin). Samples were centrifuged (20.000× g, 15 min, 4 °C), and the supernatants were assayed for protein concentration (using Bradford method) and for cytokine/chemokine contents by using specific sandwich ELISAs according to manufacturer’s recommendations (BD Bioscience, Heidelberg, Germany and Peprotech, London, UK). In the TMEV model on day 86 after infection, mice were anesthetized and perfused transcardially, as described above. Spinal cords were obtained via extrusion with saline and prepared for further study.
# [4] = EAE experiment 2, 0.5 or 1 mg/kg ORY-2001
structure (smiles),measurement,setting,value
"CCCCCCCCc1ccc(CCC(N)(CO)CO)cc1 [FTY720, Fingolimod, reference compound]",expression of Ogn,spinal cord of EAE mice [1],downregulated by FTY720
same,mean clinical score,[2]; ORY-2001 0.5 mg/kg,reduced the mean clinical score
same,expression of Cox1,brain of EAE mice,induction of Cox1
same,"expression of pituitary markers Gh, Prl, Pomc, Cga",brain of EAE mice,"potently downregulated the pituitary markers Gh, Prl, Pomc, and Cga"
same,IFNγ and IP-10 levels in spinal cord,spinal cord of EAE mice [3],this decrease did not reach significance
same,IL-1β levels in spinal cord,spinal cord of EAE mice [3],showed the same tendency
Nc1nnc(CN[C@@H]2C[C@H]2c2ccc(OCc3ccccc3)cc2)o1 [ORY-2001],"expression of Aif1, Bst2, Rgs4 and Mtap9",spinal cord of EAE mice [1],downregulated Aif1
same,expression of Ogn,spinal cord of EAE mice [1],preserved the expression of Ogn
same,"expression of Ptpn11, Kif1b and Pik3r1",spinal cord of EAE mice [1],prevented the induction of Ptpn11
same,mean clinical score,[2]; ORY-2001 0.5 mg/kg,reduced the mean clinical score
same,animals with mild clinical signs (clinical score ≤ 2),"[2]; EAE experiment 1 (severe), p.o. ORY-2001 1 mg/kg",60%
same,effect on disease severity,"[2]; EAE experiment 1 (severe), p.o. ORY-2001 1 mg/kg, ORY-LSD1 180 µg/kg",significantly reduced disease severity
same,animals with severe manifestations/signs of the disease,"[2]; EAE experiment 1 (severe), p.o. ORY-2001 1 mg/kg, ORY-LSD1 180 µg/kg (maximum clinical score ≥ 4.0)",10%
same,mean maximum clinical score,"[2]; EAE experiment 1 (severe), p.o. ORY-2001 1 mg/kg, ORY-LSD1 180 µg/kg, days 12-16 and 19-23",1.8
same,mice with no or only mild clinical signs at the end of the study,[2]; EAE experiment 2,70–80%
same,effect on clinical course / disease severity,"[2]; EAE experiment 2 (mild), p.o. ORY-2001 0.05, 0.5, 1 mg/kg, ORY-LSD1 90, 180 µg/kg, rasagiline 3 mg/kg",significantly reduced disease severity
same,mice with mild clinical signs,[2]; [4],50%
same,mice with no clinical signs,[2]; [4],10%
same,duration of protection after short term treatment,"[2]; EAE experiment 2, 40 days after disease onset",long-lasting protective effect
same,animals with severe signs (maximum clinical score 3.5–6),"[2]; EAE experiment 2, highest dose tested",none
same,relapse,"[2]; EAE experiment 2, lowest dose 0.05 mg/kg",suffered a relapse during the last week of follow-up
same,clinical signs at the peak of the disease,"[2]; EAE sub-chronic phase, to day 26, p.o. ORY-2001 0.5 mg/kg, ORY-LSD1 180 µg/kg",reduced the clinical signs
same,severity of symptoms in treated mice,"[2]; EAE sub-chronic phase, ORY-2001 0.5 mg/kg",displayed only mild symptoms
same,"expression of pituitary markers Gh, Prl, Pomc, Cga",brain of EAE mice,"potently downregulated the pituitary markers Gh, Prl, Pomc, and Cga"
same,"IFNγ, IL-17 and IP-10 levels in spinal cord","spinal cord of EAE mice [3]; day 26, ORY-LSD1 180 µg/kg",no significant changes
same,IL-4 levels in spinal cord,"spinal cord of EAE mice [3]; day 26, ORY-LSD1 180 µg/kg",significant increase in the levels of IL-4
same,IFNγ and IP-10 levels in spinal cord,spinal cord of EAE mice [3],this decrease did not reach significance
same,IL-1β levels in spinal cord,spinal cord of EAE mice [3],significantly reduced the exacerbated levels of IL-1β
